In this assay the target is T1, Phosphatidylinositol 4,5-bisphosphate 3-kinase catalytic subunit delta isoform (Homo sapiens, UniProt O00329).
T1 sequence (O00329 whole entry): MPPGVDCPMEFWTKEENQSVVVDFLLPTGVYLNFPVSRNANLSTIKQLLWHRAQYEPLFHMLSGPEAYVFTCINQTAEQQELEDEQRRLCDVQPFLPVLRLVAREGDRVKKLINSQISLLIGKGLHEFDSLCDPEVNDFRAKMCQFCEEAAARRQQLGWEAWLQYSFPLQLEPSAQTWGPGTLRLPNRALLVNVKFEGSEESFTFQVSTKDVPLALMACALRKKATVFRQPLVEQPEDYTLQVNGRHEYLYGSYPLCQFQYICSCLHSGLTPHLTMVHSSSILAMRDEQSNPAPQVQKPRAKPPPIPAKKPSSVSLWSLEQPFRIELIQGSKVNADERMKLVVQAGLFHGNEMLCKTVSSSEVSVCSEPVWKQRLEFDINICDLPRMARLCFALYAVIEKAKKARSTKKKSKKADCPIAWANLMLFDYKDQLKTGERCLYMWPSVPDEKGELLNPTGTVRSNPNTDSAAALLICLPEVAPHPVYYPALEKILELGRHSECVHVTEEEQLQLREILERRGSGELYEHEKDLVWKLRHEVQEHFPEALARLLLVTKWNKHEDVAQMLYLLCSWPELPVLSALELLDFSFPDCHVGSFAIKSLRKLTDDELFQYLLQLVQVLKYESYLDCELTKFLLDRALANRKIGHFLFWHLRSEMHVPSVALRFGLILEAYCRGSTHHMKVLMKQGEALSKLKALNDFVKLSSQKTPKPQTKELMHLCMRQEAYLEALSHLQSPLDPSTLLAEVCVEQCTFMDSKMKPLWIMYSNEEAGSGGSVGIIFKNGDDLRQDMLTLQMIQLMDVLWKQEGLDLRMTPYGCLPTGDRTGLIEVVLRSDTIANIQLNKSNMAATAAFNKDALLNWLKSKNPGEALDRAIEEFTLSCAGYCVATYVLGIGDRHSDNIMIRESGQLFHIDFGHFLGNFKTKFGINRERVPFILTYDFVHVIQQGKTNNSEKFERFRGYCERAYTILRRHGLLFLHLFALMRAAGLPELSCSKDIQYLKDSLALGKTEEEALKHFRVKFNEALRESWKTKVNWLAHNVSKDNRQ
Put plainly: PI3Kdelta Scintillation Proximity A3 Assay. As for the experimental part:
[γ-33P]ATP (10 mCi/mL) was purchased from Perkin-Elmer (Waltham, Mass.). […] PI3Kδ (p110δ/p85α) was purchased from Millipore (Bedford, Mass.). ATP, MgCl2, DTT, EDTA, MOPS and CHAPS were purchased from Sigma-Aldrich (St. Louis, Mo.). Wheat Germ Agglutinin (WGA) YSi SPA Scintillation Beads was purchased from GE healthcare life sciences (Piscataway, N.J.).The kinase reaction was conducted in polystyrene 384-well matrix white plate from Thermo Fisher Scientific in a final volume of 25 μL. Inhibitors were first diluted serially in DMSO and added to the plate wells before the addition of other reaction components. The final concentration of DMSO in the assay was 0.5%. The PI3K assays were carried out at room temperature in 20 mM MOPS, pH 6.7, 10 mM MgCl2, 5 mM DTT and CHAPS 0.03%. Reactions were initiated by the addition of ATP, the final reaction mixture consisted of 20 μM PIP2, 20 μM ATP, 0.2 μCi [γ-33P] ATP, 4 nM PI3Kδ. […] 25 mM EDTA, 400 μM ATP. The final concentration of SPA beads was 1.0 mg/mL. After the plate sealing, plates were shaken overnight at room temperature and centrifuged at 1800 rpm for 10 minutes, the radioactivity of the product was determined by scintillation counting on Topcount (Perkin-Elmer). IC50 determination was performed by fitting the curve of percent control activity versus the log of the inhibitor concentration using the GraphPad Prism 3.0 software.
In general terms: SPA uses beads or plates that emit light when radiolabelled molecules are held near them.

Among the data in BindingDB's records for patent US10376513 (Incyte Holdings Corporation, 2019) are IC50 values, retold here.

Structures are written as SMILES.

Take `COc1c(C(C)n2nc(C3C=NNC3)c3c(N)ncnc32)cc(Cl)c(C)c1C1CN(CC#N)C1` (stereo unspecified) [US10376513, Example 126]: the IC50 (as a rule, the concentration that gives 50% inhibition) is under 10 nM.
